Data on nine molecules can be found in PMC11443518, “Undescribed Amaryllidaceae Alkaloids from Zephyranthes citrina and Their Cytotoxicity” (Journal of Natural Products, 2024).

Like-named read-outs stand apart in the source and are kept apart here. Where only a bound is given, the exact number is not on record here.

Experiment [1] concerns HT-29 (colorectal adenocarcinoma). Put plainly: WST-1 cell proliferation assay, cytotoxicity screening. It counts as cell-based. Conditions: Homo sapiens, read-out: growth percent (GP) HT-29. The source says: (§1) Selected human tumor and nontumor cell lines Jurkat (acute T-cell leukemia), MOLT-4 (acute lymphoblastic leukemia), A549 (lung carcinoma), HT-29 (colorectal adenocarcinoma), PANC-1 (pancreas epithelioid carcinoma), A2780 (ovarian carcinoma), HeLa (cervix adenocarcinoma), MCF-7 (breast adenocarcinoma), SAOS-2 (osteosarcoma) and MRC-5 (nontumor lung fibroblasts) were purchased from European Collection of Authenticated Cell Cultures (ECACC, Salisbury, UK) and cultured according to the provider’s culture method guidelines. […] The cells in low passage number (nontumor primary cell line MRC-5 was used for a maximum of 10 passages and cancer cell lines were used for a maximum of 20 passages) and in an exponential growth phase were used for this study.
(§2) Each cell line was seeded at a previously established optimal density (1 × 10^3 to 50 × 10^3 cells per well) in a 96-well plate (TPP, Trasadingen, Switzerland) and cells were allowed to settle overnight. During screening tests for cytotoxicity, cells were treated with alkaloids at a final concentration of 10 μM for 48 h. Doxorubicin (Sigma-Aldrich, St. Louis, USA), at a concentration of 1 μM, was used as a positive control. At the end of the culture period, the WST-1 proliferation assay (Roche, Basel, Switzerland) was performed according to the manufacturer’s protocol. The absorbance was determined using a Tecan Spark microplate reader (Tecan, Männedorf, Switzerland). Each value is the mean of three independent experiments and represents the percentage of the proliferation of control, nontreated cells (100%). The growth percent (GP) value as the mean of the proliferation decrease was calculated for each cell line and derivative tested.
(In general: Tetrazolium assays rely on reduction of a dye to a coloured formazan, in cell work by metabolically active cells.)

In experiment [2] the test system is A2780 (ovarian carcinoma). The experiment is described as above. Conditions: Homo sapiens, read-out: growth percent (GP) A2780. The class given is cell-based.
Excerpt: as §1, §2

In experiment [3] the test system is Jurkat (acute T-cell leukemia). Described as above. It counts as cell-based. The following applies: Homo sapiens, 48 h, read-out: growth percent (GP) Jurkat.
Excerpt: as §1, §2

The next experiment has as its system SAOS-2 (osteosarcoma). Described as above. The class given is cell-based. The following applies: Homo sapiens, read-out: growth percent (GP) SAOS-2.
Excerpt: as §1, §2

In experiment [4] the test system is PANC-1 (pancreas epithelioid carcinoma). The description is as above. The class given is cell-based. Conditions: Homo sapiens, read-out: growth percent (GP) PANC-1.
Excerpt: as §1, §2

In experiment [5] the test system is MRC-5 (nontumor lung fibroblasts). Described as above. The class given is cell-based. Conditions: Homo sapiens, read-out: growth percent (GP) MRC-5.
Excerpt: as §1, §2

The subject of experiment [6] is HeLa (cervix adenocarcinoma). The experiment is described as above. It counts as cell-based. The following applies: Homo sapiens, 48 h, read-out: growth percent (GP) HeLa.
Excerpt: as §1, §2

Another experiment deals with A549 (lung carcinoma). The description is as above. The following applies: Homo sapiens, read-out: growth percent (GP) A549. It counts as cell-based.
Excerpt: as §1, §2

The subject of experiment [7] is nine human tumor and one nontumor cell lines. Put plainly: Cytotoxicity screening across the whole panel of cell lines. The following applies: for activity at 10 µM: Homo sapiens, read-out: GP value across the tested cell lines. It counts as cell-based.
Excerpt: Concerning the cytotoxicity of alkaloids isolated from Z. citrina, initially, Prakash and Vedanayaki investigated the MeOH extract of the bulbs for its in vitro cytotoxic activity using the MTT assay against three human cancer cell lines from different tissue origins: cervical cancer (HeLa), breast cancer (MCF-7), and oral squamous carcinoma (SCC-9). […] In this context, and to assess potential negative effects on human cell cultures, compounds 1, and 3–27 were screened in our study for cytotoxicity using a 10 μM single-dose regimen. The results were compared with those using the clinically approved antineoplastic agent doxorubicin at 1 μM. The effect on cell growth was investigated on nine human tumor and one nontumor cell lines, namely Jurkat (acute T-cell leukemia), MOLT-4 (acute lymphoblastic leukemia), A549 (lung carcinoma), HT-29 (colorectal adenocarcinoma), PANC-1 (pancreas epithelioid carcinoma), A2780 (ovarian carcinoma), HeLa (cervix adenocarcinoma), MCF-7 (breast adenocarcinoma), SAOS-2 (osteosarcoma) and MRC-5 (nontumor lung fibroblasts). […] No toxicity is valuable information, especially for compound 18, as it is a potent inhibitor of hAChE and hBChE.[27]
Selected human tumor and nontumor cell lines Jurkat (acute T-cell leukemia), MOLT-4 (acute lymphoblastic leukemia), A549 (lung carcinoma), HT-29 (colorectal adenocarcinoma), PANC-1 (pancreas epithelioid carcinoma), A2780 (ovarian carcinoma), HeLa (cervix adenocarcinoma), MCF-7 (breast adenocarcinoma), SAOS-2 (osteosarcoma) and MRC-5 (nontumor lung fibroblasts) were purchased from European Collection of Authenticated Cell Cultures (ECACC, Salisbury, UK) and cultured according to the provider’s culture method guidelines. All cell lines were maintained at 37 °C in a humidified 5% carbon dioxide and 95% air incubator. The cells in low passage number (nontumor primary cell line MRC-5 was used for a maximum of 10 passages and cancer cell lines were used for a maximum of 20 passages) and in an exponential growth phase were used for this study.
as §2

Experiment [8] relates to MOLT-4 (acute lymphoblastic leukemia). Put plainly: WST-1 cell proliferation assay, cytotoxicity screening. It counts as cell-based, human. The following applies: for activity at 10 µM: Homo sapiens, read-out: growth percent (GP) MOLT-4.
Excerpt: as §1, §2

Experiment [9] deals with MCF-7 (breast adenocarcinoma). The experiment is described as above. The following applies: for activity at 10 µM: Homo sapiens, read-out: growth percent (GP) MCF-7. It counts as cell-based, human.
Excerpt: as §1, §2

[10] abbreviates: c = 10 μM, 48 h, % of proliferation of nontreated control.
Setting [11] is: 10 μM single dose, 48-h interval, all tested cell lines.
[12] abbreviates: c = 10 μM, % of proliferation of nontreated control.

As to `COc1cc2c(cc1OC)[C@@]13CC[C@@H](O)C[C@@H]1N(CC3)C2` [Compound 11], the activity at 10 µM was 97% in experiment [1] (HT-29, 48 h); 107% in [2] (A2780, 48 h); 99% in experiment [3]; 97% in the experiment with SAOS-2 (osteosarcoma) (SAOS-2, 48 h); 100% in experiment [4] (PANC-1, 48 h); 104% in experiment [5] (MRC5, 48 h). In addition, the activity at 10 µM in [6] was 98%; in the experiment with A549 (lung carcinoma) (A549, 48 h), 88%; in [7] (48 h), over 50%; in experiment [8] (MOLT-4, 48 h) it was 95%; in [9] (MCF7, 48 h), 104%.
Take `COc1cc(-c2cccc3c2N(C)CC3)c(CN2CC[C@@]34C=C[C@H](O)C[C@@H]3Oc3c(OC)ccc(c34)C2)c(OC)c1OC` [Compound 18, narcielline]: the activity at 10 µM in [1] (HT-29, 48 h) amounted to 106%; in experiment [2] (A2780, 48 h), 88%; in [3], 103%; in the experiment with SAOS-2 (osteosarcoma) (SAOS-2, 48 h) it was 106%; in [4] (PANC-1, 48 h) it was 111%; in experiment [5] (MRC5, 48 h) it was 111%. Moreover, the activity at 10 µM in experiment [6] is 90%; in the experiment on A549 (lung carcinoma) (A549, 48 h), 110%; in experiment [7] (48 h), over 50%; in experiment [8] (MOLT-4, 48 h), 95%; in experiment [9] (MCF7, 48 h), 115%.
Regarding `COC1C=C[C@@]23CCN(Cc4cc5c(cc42)OCO5)[C@@H]3C1` (stereo partly drawn) [Compound 17], the activity at 10 µM in experiment [1] (HT-29, 48 h) turned out to be 71%; in experiment [2] (A2780, 48 h), 55%; in experiment [3] it was 52%; in the experiment with SAOS-2 (osteosarcoma) (SAOS-2, 48 h), 76%; in experiment [4] (PANC-1, 48 h), 77%; in experiment [5] (MRC5, 48 h) it was 82%. The activity at 10 µM in experiment [6] is 75%; with A549 (lung carcinoma) (A549, 48 h), 60%; in experiment [7] (48 h) it was over 50%; in experiment [8] (MOLT-4, 48 h), 32%; in experiment [9] (MCF7, 48 h) it was 49%. For the same molecule, the “growth percent (GP) MOLT-4” value in experiment [8] (setting [10]) was “slight inhibition of growth”. For the same molecule, the “growth percent (GP) MCF-7” value in [9] (setting [10]) was “slight inhibition of growth”.
As to `O[C@@H]1C=C[C@]23CCN(Cc4cc5c(cc42)OCO5)[C@H]3C1` [Compound 14], the activity at 10 µM in [1] (HT-29, 48 h) is 84%; in experiment [2] (A2780, 48 h), 98%; in experiment [3], 91%; in the experiment on SAOS-2 (osteosarcoma) (SAOS-2, 48 h) it was 79%; in experiment [4] (PANC-1, 48 h), 84%; in experiment [5] (MRC5, 48 h), 83%. Also, the activity at 10 µM in experiment [6] was 100%; with A549 (lung carcinoma) (A549, 48 h) it was 80%; in [7] (48 h), over 50%; in experiment [8] (MOLT-4, 48 h) it was 92%; in [9] (MCF7, 48 h), 79%.
Take `COc1cc2c(c(O)c1OC)[C@@]13CC[C@H](OC)C[C@@H]1N(CC3)C2O` (stereo partly drawn) [Compound 10, zephyranine F]: the activity at 10 µM in experiment [1] (HT-29, 48 h) was found to be 88%; in experiment [2] (A2780, 48 h), 113%; in experiment [3], 89%; in the experiment with SAOS-2 (osteosarcoma) (SAOS-2, 48 h) it was 73%; in experiment [4] (PANC-1, 48 h), 77%; in [5] (MRC5, 48 h), 97%. For the same molecule, the activity at 10 µM in experiment [6] was 82%; with A549 (lung carcinoma) (A549, 48 h), 81%; in [7] (48 h), over 50%; in experiment [8] (MOLT-4, 48 h), 78%; in experiment [9] (MCF7, 48 h), 99%.
Take `COc1cc2c(cc1OC)[C@@]13C=CC(O)C[C@@H]1N(CC3)C2` (stereo partly drawn) [Compound 15, maritidine]: the activity at 10 µM in experiment [1] (HT-29, 48 h) worked out at 93%; in experiment [2] (A2780, 48 h) it was 94%; in experiment [3], 104%; in the experiment with SAOS-2 (osteosarcoma) (SAOS-2, 48 h), 94%; in experiment [4] (PANC-1, 48 h), 91%; in [5] (MRC5, 48 h), 104%. The activity at 10 µM was 101% in experiment [6]; 95% in the experiment on A549 (lung carcinoma) (A549, 48 h); over 50% in [7] (48 h); 100% in experiment [8] (MOLT-4, 48 h); 98% in [9] (MCF7, 48 h). In [7] (setting [11]), the “GP value across the tested cell lines” value was “lack of inhibitory activity”.
As to `COc1cc2c(cc1O)C(=O)O[C@@H]1CC=C3CCN(C)[C@H]3[C@H]21` [Compound 22], the activity at 10 µM in [1] (HT-29, 48 h) was 106%; in experiment [2] (A2780, 48 h), 94%; in experiment [3] it was 100%; in the experiment on SAOS-2 (osteosarcoma) (SAOS-2, 48 h), 103%; in [4] (PANC-1, 48 h) it was 92%; in experiment [5] (MRC5, 48 h), 93%. Also, the activity at 10 µM is 96% in [6]; 109% in the experiment with A549 (lung carcinoma) (A549, 48 h); over 50% in experiment [7] (48 h); 100% in [8] (MOLT-4, 48 h); 102% in [9] (MCF7, 48 h).
Turning to `COc1cc2c(cc1OC)[C@@]13CC[C@H](OC)C[C@@H]1N(CC3)C2O` (stereo partly drawn) [Compound 9, zephyranine E], the activity at 10 µM turned out to be 95% in [1] (HT-29, 48 h); 111% in experiment [2] (A2780, 48 h); 96% in [3]; 77% in the experiment on SAOS-2 (osteosarcoma) (SAOS-2, 48 h); 98% in experiment [4] (PANC-1, 48 h); 100% in experiment [5] (MRC5, 48 h). The activity at 10 µM in experiment [6] is 106%; in the experiment on A549 (lung carcinoma) (A549, 48 h) it was 95%; in experiment [7] (48 h), over 50%; in experiment [8] (MOLT-4, 48 h), 79%; in [9] (MCF7, 48 h), 108%.
For the molecule `COc1cc2c(cc1O)[C@@H]1[C@H](O)[C@@H](OC)C=C3CCN(C2)[C@H]31` [Compound 25], the activity at 10 µM in experiment [1] (HT-29, c = 10 μM, 48 h, % of proliferation of nontreated control) is 94%; in experiment [2] (A2780, c = 10 μM, 48 h, % of proliferation of nontreated control), 125%; in experiment [3] (setting [12]) it was 91%; in the experiment with SAOS-2 (osteosarcoma) (SAOS-2, c = 10 μM, 48 h, % of proliferation of nontreated control), 71%; in experiment [4] (PANC-1, c = 10 μM, 48 h, % of proliferation of nontreated control), 83%; in experiment [5] (MRC5, c = 10 μM, 48 h, % of proliferation of nontreated control), 92%. The activity at 10 µM in [6] (setting [12]) was 110%; in the experiment with A549 (lung carcinoma) (A549, c = 10 μM, 48 h, % of proliferation of nontreated control), 83%; in experiment [7] (setting [11]), over 50%; in experiment [8] (MOLT-4, c = 10 μM, 48 h, % of proliferation of nontreated control), 88%; in experiment [9] (MCF7, c = 10 μM, 48 h, % of proliferation of nontreated control) it was 102%.
